Laboratory results reported in the supplement of paper PMC10307832.

Columns and labels:
Assay in all cases: relative viability (nuclei count vs DMSO), 5 days (fraction); higher = more cells survive
Vorinostat + Bortezomib = compound: O=C(CCCCCCC(=O)Nc1ccccc1)NO [Vorinostat] + CC(C)C[C@H](NC(=O)[C@H](Cc1ccccc1)NC(=O)c1cnccn1)B(O)O [Bortezomib] (partner 0.002 µM)
Summary of the method: (§1)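 Lung cancer cell lines were pin-tool dosed in 1536-well plates on the day after seeding, with either a lone drug or a fixed anchor-drug dose plus five library-drug doses (not always all listed) in √10 steps. Nuclei were counted on 4× images after 5 days. Relative viability is the ratio of treated-well to vehicle-well nuclei counts, with each value a median of duplicate plates.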

Vorinostat + Alpelisib = compound: O=C(CCCCCCC(=O)Nc1ccccc1)NO [Vorinostat] + Cc1nc(NC(=O)N2CCC[C@H]2C(N)=O)sc1-c1ccnc(C(C)(C)C(F)(F)F)c1 [Alpelisib] (partner 2 µM)
Summary of the method: as §1

Vorinostat + Linsitinib = compound: O=C(CCCCCCC(=O)Nc1ccccc1)NO [Vorinostat] + C[C@]1(O)C[C@@H](c2nc(-c3ccc4ccc(-c5ccccc5)nc4c3)c3c(N)nccn32)C1 [Linsitinib] (partner 1 µM)
Summary of the method: as §1

Vorinostat + Lapatinib = compound: O=C(CCCCCCC(=O)Nc1ccccc1)NO [Vorinostat] + CS(=O)(=O)CCNCc1ccc(-c2ccc3ncnc(Nc4ccc(OCc5cccc(F)c5)c(Cl)c4)c3c2)o1 [Lapatinib] (partner 2 µM)
Summary of the method: as §1

Vorinostat + Navitoclax = compound: O=C(CCCCCCC(=O)Nc1ccccc1)NO [Vorinostat] + CC1(C)CCC(c2ccc(Cl)cc2)=C(CN2CCN(c3ccc(C(=O)NS(=O)(=O)c4ccc(N[C@H](CCN5CCOCC5)CSc5ccccc5)c(S(=O)(=O)C(F)(F)F)c4)cc3)CC2)C1 [Navitoclax] (partner 0.5 µM)
Summary of the method: as §1

Vorinostat + Crizotinib = compound: O=C(CCCCCCC(=O)Nc1ccccc1)NO [Vorinostat] + C[C@@H](Oc1cc(-c2cnn(C3CCNCC3)c2)cnc1N)c1c(Cl)ccc(F)c1Cl [Crizotinib] (partner 1 µM)
Summary of the method: as §1

Vorinostat + Olaparib = compound: O=C(CCCCCCC(=O)Nc1ccccc1)NO [Vorinostat] + O=C(c1cc(Cc2n[nH]c(=O)c3ccccc23)ccc1F)N1CCN(C(=O)C2CC2)CC1 [Olaparib] (partner 8 µM)
Summary of the method: as §1

Vorinostat + Foretinib = compound: O=C(CCCCCCC(=O)Nc1ccccc1)NO [Vorinostat] + COc1cc2c(Oc3ccc(NC(=O)C4(C(=O)Nc5ccc(F)cc5)CC4)cc3F)ccnc2cc1OCCCN1CCOCC1 [Foretinib] (partner 0.25 µM)
Summary of the method: as §1

Vorinostat + Pictilisib = compound: O=C(CCCCCCC(=O)Nc1ccccc1)NO [Vorinostat] + CS(=O)(=O)N1CCN(Cc2cc3nc(-c4cccc5[nH]ncc45)nc(N4CCOCC4)c3s2)CC1 [Pictilisib] (partner 1 µM)
Summary of the method: as §1

Vorinostat = compound: O=C(CCCCCCC(=O)Nc1ccccc1)NO [Vorinostat]
Summary of the method: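 Cells of lung cancer lines were placed in 1536-well plates and kept overnight at 37 °C. Pinning then delivered five library-drug doses (not always all listed), spaced by √10, onto plates anchored with vehicle, and the cells were left 5 days without changing medium. One step fixed, permeabilised and stained them with Hoechst, and MetaXpress counted nuclei in 4× images. Viability, as a median over plates, is treated-well nuclei divided by vehicle-well nuclei, with acceptance only at control CV below 25% and at least one doubling.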

Row | Cell Line | relative viability (Vorinostat + Bortezomib; first compound 0.253 µM) | relative viability (Vorinostat + Bortezomib; first compound 0.8 µM) | relative viability (Vorinostat + Bortezomib; first compound 2.53 µM) | relative viability (Vorinostat + Bortezomib; first compound 8 µM) | relative viability (Vorinostat + Alpelisib; first compound 0.253 µM) | relative viability (Vorinostat + Alpelisib; first compound 0.8 µM) | relative viability (Vorinostat + Alpelisib; first compound 2.53 µM) | relative viability (Vorinostat + Alpelisib; first compound 8 µM) | relative viability (Vorinostat + Linsitinib; first compound 0.253 µM) | relative viability (Vorinostat + Linsitinib; first compound 0.8 µM) | relative viability (Vorinostat + Linsitinib; first compound 2.53 µM) | relative viability (Vorinostat + Linsitinib; first compound 8 µM) | relative viability (Vorinostat + Lapatinib; first compound 0.253 µM) | relative viability (Vorinostat + Lapatinib; first compound 0.8 µM) | relative viability (Vorinostat + Lapatinib; first compound 2.53 µM) | relative viability (Vorinostat + Lapatinib; first compound 8 µM) | relative viability (Vorinostat + Navitoclax; first compound 0.253 µM) | relative viability (Vorinostat + Navitoclax; first compound 0.8 µM) | relative viability (Vorinostat + Navitoclax; first compound 2.53 µM) | relative viability (Vorinostat + Navitoclax; first compound 8 µM) | relative viability (Vorinostat + Crizotinib; first compound 0.253 µM) | relative viability (Vorinostat + Crizotinib; first compound 0.8 µM) | relative viability (Vorinostat + Crizotinib; first compound 2.53 µM) | relative viability (Vorinostat + Crizotinib; first compound 8 µM) | relative viability (Vorinostat + Olaparib; first compound 0.253 µM) | relative viability (Vorinostat + Olaparib; first compound 0.8 µM) | relative viability (Vorinostat + Olaparib; first compound 2.53 µM) | relative viability (Vorinostat + Olaparib; first compound 8 µM) | relative viability (Vorinostat + Foretinib; first compound 0.253 µM) | relative viability (Vorinostat + Foretinib; first compound 0.8 µM) | relative viability (Vorinostat + Foretinib; first compound 2.53 µM) | relative viability (Vorinostat + Foretinib; first compound 8 µM) | relative viability (Vorinostat + Pictilisib; first compound 0.253 µM) | relative viability (Vorinostat + Pictilisib; first compound 0.8 µM) | relative viability (Vorinostat + Pictilisib; first compound 2.53 µM) | relative viability (Vorinostat + Pictilisib; first compound 8 µM) | relative viability (Vorinostat; 0.253 µM) | relative viability (Vorinostat; 0.8 µM) | relative viability (Vorinostat; 2.53 µM) | relative viability (Vorinostat; 8 µM)
1 | EBC-1 | 0.376 | 0.325 | 0.124 | 0.0971 | 0.675 | 0.65 | 0.143 | 0.0927 | 0.838 | 0.458 | 0.134 | 0.0589 | 0.243 | 0.209 | 0.164 | 0.124 | 0.376 | 0.215 | 0.126 | 0.114 | 0.207 | 0.224 | 0.169 | 0.118 | 0.681 | 0.476 | 0.193 | 0.0767 | 0.117 | 0.101 | 0.0655 | 0.044 | 0.32 | 0.203 | 0.1 | 0.0715 | 0.913 | 0.654 | 0.222 | 0.0742
2 | Calu-6 | 0.917 | 0.864 | 0.434 | 0.127 | 1.25 | 0.917 | 0.302 | 0.0879 | 0.995 | 0.868 | 0.293 | 0.0756 | 1.12 | 0.876 | 0.416 | 0.107 | 0.849 | 0.761 | 0.212 | 0.0656 | 0.745 | 0.5 | 0.153 | 0.0713 | 0.527 | 0.377 | 0.169 | 0.078 | 0.975 | 0.728 | 0.183 | 0.0381 | 1.11 | 0.838 | 0.238 | 0.0615 | 1.07 | 0.894 | 0.361 | 0.0946
